The values that follow come from article PMC12040169 (PLOS Biology, 2025).

Molecules are shown by their SMILES.

A short description of this data set: in vitro. The settings on record: human, hela cells, % viability.
For the molecule `Cc1noc(C)c1CCC(=O)NCc1cccc(C#N)c1` [CBK305938], the viability at 28.5 h, 10 µM worked out at 108%. For `CCn1c(S)nnc1CNC(=O)c1ccc(Cl)cc1Cl` [CBK267152], the viability at 28.5 h, 10 µM stood at 94.3%.

In the case of `CCOC(=O)c1ccc(NS(=O)(=O)c2cc(Cl)ccc2Cl)cc1` [CBK077746], the viability at 28.5 h, 10 µM came out at 88.4%. For the molecule `O=[N+]([O-])c1ccc(CN2CCC(Oc3cncc(OCCN4CCOCC4)n3)C2)cc1` (stereo not shown) [CBK084485], the viability at 28.5 h, 10 µM worked out at 95.2%.

With `O=C(COc1ccc2ccccc2c1)Nc1cc([N+](=O)[O-])ccc1F` [CBK263780], the viability at 28.5 h, 10 µM amounted to 92.8%. The figure for `O=C(CC1Sc2ccccc2NC1=O)Nc1ccc([N+](=O)[O-])c(F)c1` (stereo not shown) [CBK264717] is 85.5%; for `Cc1ccccc1CN1CC[C@H]2[C@@H](C1)[C@H](c1ccsc1)CN2C(=O)c1ccccc1` [CBK285618] it is 100%; for `CS(=O)(=O)N(Cc1ccccc1)c1ccc(C(=O)N/N=C/c2ccccc2C(F)(F)F)cc1` [CBK262711] it is 88%. The figure for `Cc1cc2c(o1)CCc1sc(N(C)C(=O)C3CCCO3)nc1-2` (stereo not shown) [CBK281932] is 80.3%; for `Cc1nsc(NCc2ccccc2CN2CCC(O)CC2)c1C#N` [CBK304695] it is 95.1%. Regarding `Cc1cccc(OCC(=O)NCCCc2ccccc2)c1C` [CBK265507], the viability at 28.5 h, 10 µM was 99.9%. Turning to `CN1CCN(CCCNC(=O)N2CCN(Cc3ccccc3)CC2)CC1` [CBK155621], the viability at 28.5 h, 10 µM was found to be 91.3%. As for `C(=N\n1cnnc1)/c1ccccc1OCc1cccc2ccccc12` [CBK263864], the viability at 28.5 h, 10 µM was 94.6%. Then `Cc1ccc2nc(-c3ccc(NC(=O)CSc4nc(-c5ccccc5)cc(=O)[nH]4)cc3)sc2c1` [CBK265861], with 78.5%. With `Cc1cccc(-c2ccc(CC3(C(=O)NC(C)C)CCN(C(=O)C(C)(C)C)CC3)cc2)c1` [CBK285758], the viability at 28.5 h, 10 µM worked out at 96.2%. For the molecule `O=C(O)COc1ccc(/C=C/c2nc3n(n2)C=COc2ccccc2-3)cc1` [CBK286650], the viability at 28.5 h, 10 µM is 80.2%.

As for `CN1CCN(c2cccc(-c3ccccc3Oc3ccccc3)n2)CC1` [CBK037598], the viability at 28.5 h, 10 µM came out at 101%.

For `O=C(NCCN1CCOCC1)c1cccc(S(=O)(=O)N2CCCC2)c1` [CBK267316], the viability at 28.5 h, 10 µM worked out at 98.2%.

On to `CCOC(=O)c1cnn2c(O)cc(CN(CC(C)(C)O)C(C)C)nc12` [CBK306133], for which the viability at 28.5 h, 10 µM came out at 93.6%. For `CN(C)/C=N/c1nc2c(ccn2C2CC(O)C(CO)O2)c(=O)[nH]1` (stereo not shown) [CBK201276], the viability at 28.5 h, 10 µM amounted to 107%. Regarding `O=C(N[C@H]1CO[C@H]2[C@@H]1OC[C@@H]2n1cc(-c2ccccn2)nn1)c1ccc(C(F)(F)F)cc1` [CBK289507], the viability at 28.5 h, 10 µM worked out at 89.7%. Then `Cc1ccc(C(CNCc2cn(C)nc2-c2cccnc2)N(C)C)cc1` (stereo not shown) [CBK305343], with 109%; and `CCN(CC)S(=O)(=O)c1ccc2c(c1)CCCN2C(=O)c1ccc(C#N)cc1` [CBK295161], with 85.9%.

Take `C[C@H](Cn1nc2c(cc1=O)CCCCC2)NC(=O)Cc1cccs1` [CBK284548]: the viability at 28.5 h, 10 µM turned out to be 100%. For `C1CN2CCC1/C(=N\Nc1nnn[nH]1)C2` [CBK019005C], the viability at 28.5 h, 10 µM was determined as 93.8%. For the molecule `Cc1ccc(C(=O)NCc2ccc3c(c2)CCO3)c(N2CCOCC2)n1` [CBK106202], the viability at 28.5 h, 10 µM was 88.8%. Then `Cc1cccc(C(=O)Nc2c(C(=O)Nc3ccc(Br)cc3)cnn2-c2ccccc2)c1` [CBK264839], with 113%; and `Nc1ncc(-c2cccc(O)c2)nc1-c1ccc(CCC(=O)O)cc1` [CBK064135], with 103%. Then `CC1CCc2nn(CCNC(=O)Cc3ccc(F)cc3)c(=O)cc2C1` (stereo not shown) [CBK284485], with 92.5%.

`CCCNc1nc(Nc2ccc(C)cc2)nc(N2CCOCC2)n1` [CBK266664]: the viability at 28.5 h, 10 µM turned out to be 111%. The figure for `CCC(CC)Cn1c(-c2cccnc2)nc2cc(S(=O)(=O)NCCO)ccc21` [CBK003450] is 91%; for `COC(=O)c1ccccc1NC(=O)NCc1cc(C)n(C)n1` [CBK266887C] it is 109%. The figure for `COc1cc(CNC(=O)c2ccc(-c3ccc(NC(C)=O)cc3)nc2)cc(OC)c1OC` [CBK158851] is 100%. Take `O=C(c1cccs1)N1CC(n2nc(-c3cccs3)ccc2=O)C1` [CBK283347]: the viability at 28.5 h, 10 µM was 97.3%. The figure for `COCCNc1nc2c(c(N3CCCCCC3)n1)CCNCC2` [CBK306724] is 104%; for `CSc1nc2ccc3nc(NC(C)=O)sc3c2s1` [CBK287567] it is 106%; for `c1cc(-c2n[nH]c(C3CCNCC3)n2)ccn1` [CBK104676C] it is 85.2%. The figure for `Cc1noc(C)c1NC(=O)c1ccncc1` [CBK200389] is 89.9%; for `COCCn1c(SC(C)C(=O)N2CCNC2=O)nc2ccccc21` (stereo not shown) [CBK305832] it is 85.7%. The figure for `CCOc1cc(F)ccc1NC(=O)CC1CCN(c2nc(C)cc(C)n2)CC1` [CBK285958] is 103%; for `Cc1sc2nc(SCc3nc4ccccc4[nH]3)n(Cc3ccco3)c(=O)c2c1C` [CBK267554] it is 112%. As to `CCC(CCO)CNc1ncnc2ccc(S(C)(=O)=O)cc12` (stereo not shown) [CBK305157], the viability at 28.5 h, 10 µM is 84%. The figure for `NC(=O)c1ccc(NC(=O)N2CCN(CCc3ccccc3)CC2)cc1` [CBK158924] is 95.3%. For `Cc1ccc2[nH]cc(CCN3CCC(C(=O)NC(=O)Nc4ccccc4F)CC3)c2c1` [CBK034974], the viability at 28.5 h, 10 µM was 93%.

In the case of `CCc1nn(CC(=O)N2CCCC(C)C2)c(=O)c2cc3occc3n12` (stereo not shown) [CBK283657], the viability at 28.5 h, 10 µM is 79.3%. The figure for `Cc1ccc(-c2ccc(CCC(=O)O)n2N=C(N)S)cc1` [CBK265870] is 91%.

Consider `CCn1cc(CN2CCN(C(=O)C3C4CCCCC43)CC2)c(C)n1` (stereo not shown) [CBK281545], for which the viability at 28.5 h, 10 µM came to 97.1%. On to `Cn1c(Cc2ccccc2)nnc1SCC(=O)Nc1ccc(N2CCOCC2)cc1` [CBK269750], for which the viability at 28.5 h, 10 µM came out at 89.8%. Then `COc1cc(-c2nnc(CSc3nc4sc(C(=O)O)c(C)c4c(=O)[nH]3)o2)cc(OC)c1OC` [CBK296973], with 91%; and `CCCc1cc(=O)oc2cc(OCc3ccc(C(=O)O)o3)ccc12` [CBK264786], with 108%. With `CCOC(=O)CCNC(=O)c1cc2cccc(OC)c2o1` [CBK149816], the viability at 28.5 h, 10 µM is 88.1%. As to `O=C(COc1ccc(F)cc1)Nc1ccc2ncccc2c1` [CBK159816], the viability at 28.5 h, 10 µM is 85.7%. The figure for `C#CCNC(=O)C1CCCN(c2nc3ccccc3n2C)C1` (stereo not shown) [CBK282336] is 89.6%; for `Cc1ccc2c(c1)cc(C)c1nn(CC(=O)N3CCCC3)c(=O)n12` [CBK283872] it is 101%; for `NC(=O)[C@@H]1C[C@@H](O)[C@H](O)[C@H]2[C@@H]1N(c1ccccc1)C(=S)N2Cc1ccc(F)cc1` [CBK288928] it is 102%. The figure for `Fc1ccc(-c2ccc(CNCc3ccncc3)o2)cc1` [CBK270158C] is 92.7%; for `CC(=O)Oc1ccc(-c2cccc(C(=O)NCCO)c2)cc1` [CBK263829] it is 105%; for `COc1ccc(CCNC(=S)NC2CC3CCC2C3)cc1OC` (stereo not shown) [CBK015410] it is 90.8%.

As to `COc1ccc(Cl)cc1NC(=S)NCCn1cc(Cl)cn1` [CBK267063], the viability at 28.5 h, 10 µM came out at 89.8%. Consider `O=C(NC1Cc2ccccc2C1)c1cncnc1` [CBK200262], for which the viability at 28.5 h, 10 µM turned out to be 119%. As for `Cc1cccn2cc(C(=O)NC(C)CN3CCCC3)nc12` (stereo not shown) [CBK281714], the viability at 28.5 h, 10 µM turned out to be 99.6%. Then `Cn1c(=O)c2c(nc(NCCCO)n2C/C=C/c2ccccc2)n(C)c1=O` [CBK268940], with 87.2%; and `O=Cc1ccc(-c2nccnc2NS(=O)(=O)c2ccccc2)cc1` [CBK073845], with 97.3%; and `CS(=O)(=O)Nc1ccc(-c2ccc3c(c2)CCO3)c2ccccc12` [CBK083753], with 76.5%. As for `O=C(Cn1c(-c2ccco2)cc2cccnc21)N1CCCC1` [CBK282683], the viability at 28.5 h, 10 µM worked out at 84.8%. `COc1ccc(C(=O)N2CCN(c3cnn(C)c(=O)c3Cl)CC2)cc1` [CBK305720]: the viability at 28.5 h, 10 µM amounted to 84.8%. The figure for `Cc1ccc(C(=O)NNCc2ccccc2)c(NCc2cccnc2)n1` [CBK076369] is 88.6%; for `COc1cc(C(C)=O)ccc1OC(=O)CN1C(=O)c2ccccc2C1=O` [CBK262392] it is 112%; for `CC(C)[C@H](CO)n1c(=O)[nH]c2ncc(-c3cccc4ccccc34)nc21` [CBK064985] it is 104%. For the molecule `O=C(c1ccco1)N1CCN(c2cc(-c3cccc4cccnc34)ncn2)CC1` [CBK091117], the viability at 28.5 h, 10 µM was determined as 99.1%. The figure for `COCc1cc(C[C@H]2CNCC[C@H]2CC(=O)N2CCc3ccccc3C2)no1` [CBK289144] is 88.4%; for `O=S(=O)(c1ccc(-c2csc(-c3cccnc3)n2)cc1)N1CCCCCC1` [CBK265502] it is 106%; for `Cc1cc(Cl)c(S(=O)(=O)Nc2cccnc2)cc1OCC(N)=O` [CBK266523] it is 104%. Consider `CC(C)[C@H](CO)Nc1nccnc1-c1ccco1` [CBK037390], for which the viability at 28.5 h, 10 µM is 99%.

Consider `CN(C(=O)c1ccccn1)C1CCN(c2ncnc3ccccc23)CC1` [CBK305346], for which the viability at 28.5 h, 10 µM turned out to be 91.8%.

As to `Cc1cc(NC(=O)c2cc3ccccc3o2)nc2c1c(=O)oc1ccccc12` [CBK291256], the viability at 28.5 h, 10 µM is 90.2%.

In the case of `O=C(NC1CCCCC1)N[C@H]1CO[C@H]2[C@@H]1OC[C@@H]2n1cc(-c2ccccc2)nn1` [CBK289505], the viability at 28.5 h, 10 µM was found to be 84.6%. Then `CCn1c2ccccc2c2cc(CN(CCN(C)C)Cc3ccccc3)ccc21` [CBK261924], with 102%; and `CC(=O)Nc1cccc(-c2cnc(N)c(NCc3cccnc3)n2)c1` [CBK063562], with 103%.
